{
  "source": "patent US7850997B2",
  "about": "“Dietary compositions and methods of enhancing lean body mass and exercise performance” (priority 2007, dated 2010)",
  "origin": "cited, not measured here",
  "key": {"[1]": {"settings": "compared with placebo; patients"}, "[2]": {"settings": "oral arginine 0.5 g/10 kg for one week, versus placebo; primary or precapillary secondary pulmonary hypertension"}, "[3]": {"settings": "after arginine 6 g/day for 10 days; 7 healthy males"}, "[4]": {"settings": "6 g oral L-arginine for 3 days vs placebo; 25 patients with stable coronary artery disease"}, "[5]": {"settings": "oral L-arginine 6 g for 3 days; 22 patients with stable angina pectoris and healed myocardial infarction"}},
  "data": [
    {"smiles": "N=C(N)NCCCC(N)C(=O)O", "note": "(stereo not shown) [arginine, 2-amino-5-guanidinovaleric acid]", "values": [
      {"measurement": "forearm blood flow during forearm exercise", "setting": "[1]", "value": "significantly increased"},
      {"measurement": "mean pulmonary arterial pressure", "setting": "[2]", "value": "significantly decreased"},
      {"measurement": "pulmonary vascular resistance", "setting": "[2]", "value": "significantly decreased"},
      {"measurement": "flow-mediated vasodilation (FMV) after 4 and 6 h after oral fat load", "setting": "[3]", "value": "normalized"},
      {"measurement": "flow-mediated vasodilation (FMV) at 2 h after oral fat load", "setting": "[3]", "value": "significantly decreased"},
      {"measurement": "exercise duration", "setting": "[4]", "value": "significantly increased"},
      {"measurement": "exercise capacity", "setting": "[5]", "value": "increased"}
    ]}
  ]
}
